From patent US20230183188A1, “ENPP1 MODULATORS AND USES THEREOF” (Vir Biotechnology, Inc., priority 2020, published 2023) come the findings set out here.

The target of the test is T1, recombinant protein containing the human ENPP1 enzymatic domain (Homo sapiens, UniProt P22413).
T1 construct: recombinant protein containing the human ENPP1 enzymatic domain; purchased R&D Systems 6136-EN-010
T1 sequence (P22413 191-591 limits assumed): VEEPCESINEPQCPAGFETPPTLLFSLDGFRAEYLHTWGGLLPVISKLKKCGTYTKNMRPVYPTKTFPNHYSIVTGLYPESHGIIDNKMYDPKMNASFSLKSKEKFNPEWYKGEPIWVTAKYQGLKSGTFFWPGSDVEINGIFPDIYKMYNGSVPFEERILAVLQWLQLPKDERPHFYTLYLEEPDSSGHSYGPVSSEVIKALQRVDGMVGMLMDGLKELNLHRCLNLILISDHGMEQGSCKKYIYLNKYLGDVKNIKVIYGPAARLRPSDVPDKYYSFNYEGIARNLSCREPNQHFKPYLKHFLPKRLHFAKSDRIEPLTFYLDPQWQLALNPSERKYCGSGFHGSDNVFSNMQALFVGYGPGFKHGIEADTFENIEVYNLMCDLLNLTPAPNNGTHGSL
Kind of test: ENPP1 Enzymatic Inhibition Assay (2′3′-cGAMP substrate, AMP-Glo luminescence). Format: biochemical. The settings on record: 1 nM ENPP1, 20 uM 2′3′-cGAMP substrate, 30 minutes at 37° C. The procedure: The inhibition of ENPP1's phosphodiesterase activity were tested in a purified enzymatic assay using 2′3′-cyclic GAMP as a substrate which allowed for the release of cleaved AMP to be monitored using a luminescent assay.
Putative inhibitors were diluted in assay buffer (50 mM Tris pH 8.0, 250 mM NaCl, 0.5 mM CaCl2, 1 uM ZnCl2, 1% DMSO) and pre-incubated for 15 minutes at 37° C. with recombinant protein containing the human ENPP1 enzymatic domain (R&D Systems cat. #6136-EN-010). The enzymatic reaction was initiated upon addition of the 2′3′-cGAMP substrate. The final reaction concentrations were 1 nM ENPP1 and 20 uM 2′3′-cGAMP substrate in a 25 uL volume. Inhibitor concentrations ranged from 10 uM to 0.2 nM. The reaction was incubated for 30 minutes at 37° C.
After reacting for 30 minutes, the amount of AMP generated from the cleavage of 2′3′-cGAMP was determined using the Promega AMP-Glo method according to the manufacturer's protocol. First, AMP-Glo reagent 1 was added and incubated with the reaction mix for 1 hour at room temperature. Second, AMP Detection solution was added and the mixture was incubated for an additional hour. The luminescence of the mixture was read on a Perkin Elmer Ensight plate reader.
The maximum and minimum levels of ENPP1 activity were established using no inhibitor and no enzyme controls, respectively. The activity observed using ENPP1 inhibitors was quantified as the percent of activity relative to these controls. IC50 values were calculated using GraphPad Prism by fitting a sigmoidal variable slope nonlinear regression model to the data.
As to `COc1ccc2c(Oc3ccc(S(N)(=O)=NCC(C)O)cc3)ccnc2c1` (single isomer, unassigned) [Compound 10, N′-(2-hydroxypropyl)-4-((7-methoxyquinolin-4-yl)oxy)benzenesulfonimidamide], the IC50 – broadly, the midpoint of a concentration-inhibition curve – is less than 10 nM.
In the case of `COc1ccc2c(Oc3ccc(S(=N)(=O)NC[C@@H](O)CO)cc3)ccnc2c1` (single isomer, unassigned) [Compound 45] it was less than 10 nM.
In the case of `COc1ccc2c(Oc3ccc(S(=N)(=O)NC[C@H](O)CO)cc3)ccnc2c1` (single isomer, unassigned) [Compound 46] it was less than 10 nM; in that of `COc1ccc2c(Oc3ccc(S(N)(=O)=NCC4CC4)cc3)ccnc2c1` (centres unmarked) [Compound 1, N′-(cyclopropylmethyl)-4-((7-methoxyquinolin-4-yl)oxy)benzenesulfonimidamide], less than 10 nM; in that of `CN=S(N)(=O)c1ccc(Nc2ncnc3cc(OC)ccc23)cc1` (centres unmarked) [Compound 2, 4-((7-methoxyquinazolin-4-yl)amino)-N-methylbenzenesulfonimidamide], less than 10 nM.
In the case of `CN=S(N)(=O)c1ccc(CNc2ccnc3cc(OC)ccc23)cc1` (centres unmarked) [Compound 3, 4-(((7-methoxyquinolin-4-yl)amino)methyl)-N-methylbenzenesulfonimidamide] it was greater than 100 nM; in that of `CCS(=N)(=O)c1ccc(Oc2ccnc3cc(OC)ccc23)cc1` (centres unmarked) [Compound 4, ethyl(imino)(4-((7-methoxyquinolin-4-yl)oxy)phenyl)-λ^6-sulfanone], less than 10 nM; in that of `COc1ccc2c(Oc3ccc(S(N)(=O)=NC[C@H]4CCCN4C(=O)OC(C)(C)C)cc3)ccnc2c1` (stereo partly drawn) [Compound 5, tert-butyl (2R)-2-(((amino(4-((7-methoxyquinolin-4-yl)oxy)phenyl)(oxo)-I^6-sulfaneylidene)amino)methyl) pyrrolidine-1-carboxylate], 10 to 100 nM.
For the compound `COc1ccc2c(Oc3ccc(S(N)(=O)=NC[C@H]4CCCN4)cc3)ccnc2c1` (stereo partly drawn) [Compound 6, 4-((7-methoxyquinolin-4-yl)oxy)-N′-(((R)-pyrrolidin-2-yl)methyl)benzenesulfonimidamide], the IC50 was in the range of 10 to 100 nM.
The value for `COc1ccc2c(Oc3ccc(S(N)(=O)=NCC(=O)O)cc3)ccnc2c1` (centres unmarked) [Compound 7] was 10 to 100 nM; that for `COc1ccc2c(Oc3ccc(S4(=O)=NC(=O)CN4)cc3)ccnc2c1` (centres unmarked) [Compound 8, 1-(4-((7-methoxyquinolin-4-yl)oxy)phenyl)-4,5-dihydro-3H-1λ^6,2,5-thiadiazol-3-one 1-oxide] was greater than 100 nM; that for `COc1ccc2c(Oc3ccc(S(N)(=O)=NCCO)cc3)ccnc2c1` (centres unmarked) [Compound 9, N-(2-hydroxyethyl)-4-((7-methoxyquinolin-4-yl)oxy)benzenesulfonimidamide] was 10 to 100 nM.
The value for `COc1ccc2c(Oc3ccc(S(N)(=O)=NCC(C)(C)O)cc3)ccnc2c1` (centres unmarked) [Compound 11, N′-(2-hydroxy-2-methylpropyl)-4-((7-methoxyquinolin-4-yl)oxy)benzenesulfonimidamide] was less than 10 nM; that for `COc1ccc2c(Oc3ccc(S(N)(=O)=NCCOc4ccccn4)cc3)ccnc2c1` (centres unmarked) [Compound 12, 4-((7-methoxyquinolin-4-yl)oxy)-N′-(2-(pyridin-2-yloxy)ethyl)benzenesulfonimidamide] was less than 10 nM.
The value for `COc1ccc2c(Oc3ccc(S(N)(=O)=NCCOc4cccnc4)cc3)ccnc2c1` (centres unmarked) [Compound 13, 4-((7-methoxyquinolin-4-yl)oxy)-N′-(2-(pyridin-3-yloxy)ethyl)benzenesulfonimidamide] was less than 10 nM; that for `COc1ccc2c(Oc3ccc(S(N)(=O)=NCCOc4ccncc4)cc3)ccnc2c1` (centres unmarked) [Compound 14, 4-((7-methoxyquinolin-4-yl)oxy)-N′-(2-(pyridin-4-yloxy)ethyl)benzenesulfonimidamide] was less than 10 nM; that for `COc1ccc2c(Oc3ccc(S(N)(=O)=NCc4ncco4)cc3)ccnc2c1` (centres unmarked) [Compound 15, 4-((7-methoxyquinolin-4-yl)oxy)-N′-(oxazol-2-ylmethyl)benzenesulfonimidamide] was less than 10 nM.
For `COc1ccc2c(Oc3ccc(S(N)(=O)=NCc4nccn4C)cc3)ccnc2c1` (centres unmarked) [Compound 16, 4-((7-methoxyquinolin-4-yl)oxy)-N′-((1-methyl-1H-imidazol-2-yl)methyl)benzenesulfonimidamide], the IC50 is less than 10 nM.
In the case of `COc1ccc2c(Oc3ccc(S(N)(=O)=NCc4nccs4)cc3)ccnc2c1` (centres unmarked) [Compound 17, 4-((7-methoxyquinolin-4-yl)oxy)-N′-(thiazol-2-ylmethyl)benzenesulfonimidamide] it was less than 10 nM; in that of `COc1ccc2c(Oc3ccc(S(=N)(=O)N4CCOCC4)cc3)ccnc2c1` (centres unmarked) [Compound 18, 4-(4-((7-methoxyquinolin-4-yl)oxy)phenylsulfonimidoyl)morpholine], greater than 100 nM; in that of `COc1ccc2c(Oc3ccc(S(N)(=O)=NCCc4ccccc4)cc3)ccnc2c1` (centres unmarked) [Compound 19, 4-((7-methoxyquinolin-4-yl)oxy)-N′-phenethylbenzenesulfonimidamide], 10 to 100 nM.
The value for `COc1ccc2c(Oc3ccc(S(N)(=O)=Nc4ccccc4)cc3)ccnc2c1` (centres unmarked) [Compound 20, 4-((7-methoxyquinolin-4-yl)oxy)-N′-phenylbenzenesulfonimidamide] was 10 to 100 nM.
For `COc1ccc2c(Oc3ccc(S(N)(=O)=NC4CC4)cc3)ccnc2c1` (centres unmarked) [Compound 21, N′-cyclopropyl-4-((7-methoxyquinolin-4-yl)oxy)benzenesulfonimidamide], the IC50 is 10 to 100 nM.
The value for `CCN=S(N)(=O)c1ccc(Oc2ccnc3cc(OC)ccc23)cc1` (centres unmarked) [Compound 22, N′-ethyl-4-((7-methoxyquinolin-4-yl)oxy)benzenesulfonimidamide] was 10 to 100 nM.
As to `CCN(CC)S(=N)(=O)c1ccc(Oc2ccnc3cc(OC)ccc23)cc1` (centres unmarked) [Compound 23, N,N-diethyl-4-((7-methoxyquinolin-4-yl)oxy)benzenesulfonimidamide], the half-inhibitory concentration (IC50) was greater than 100 nM.
In the case of `COc1ccc2c(Oc3ccc(S(=N)(=O)N4CCCC4)cc3)ccnc2c1` (centres unmarked) [Compound 24, 7-methoxy-4-(4-(pyrrolidine-1-sulfonimidoyl)phenoxy)quinoline] it was greater than 100 nM; in that of `COc1ccc2c(Oc3ccc(S(N)(=O)=NCc4ccccc4)cc3)ccnc2c1` (centres unmarked) [Compound 25, N′-benzyl-4-((7-methoxyquinolin-4-yl)oxy)benzenesulfonimidamide], less than 10 nM.
Turning to `COc1ccc2c(Oc3ccc(S(N)(=O)=NCc4ccccn4)cc3)ccnc2c1` (centres unmarked) [Compound 26, 4-((7-methoxyquinolin-4-yl)oxy)-N′-(pyridin-2-ylmethyl)benzenesulfonimidamide], the half-maximal inhibitory concentration (IC50) is 10 to 100 nM.
Take `COc1ccc2c(Oc3ccc(S(N)(=O)=NCc4cccnc4)cc3)ccnc2c1` (centres unmarked) [Compound 27, 4-((7-methoxyquinolin-4-yl)oxy)-N′-(pyridin-3-ylmethyl)benzenesulfonimidamide]: the 50% inhibitory concentration (IC50) fell in the range of 10 to 100 nM.
As for `COc1ccc2c(Oc3ccc(S(N)(=O)=NCc4ccncc4)cc3)ccnc2c1` (centres unmarked) [Compound 28, 4-((7-methoxyquinolin-4-yl)oxy)-N′-(pyridin-4-ylmethyl)benzenesulfon imidamide], the IC50 fell in the range of 10 to 100 nM.
In the case of `COc1ccc2c(Oc3ccc(S(=N)(=O)N4CCN(C)CC4)cc3)ccnc2c1` (centres unmarked) [Compound 29, 7-methoxy-4-(4-(4-methylpiperazine-1-sulfonimidoyl)phenoxy)quinoline] it was 10 to 100 nM; in that of `COc1ccc2c(Oc3ccc(S(=N)(N)=O)cc3)ccnc2c1` (centres unmarked) [Compound 30, 4-((7-methoxyquinolin-4-yl)oxy)benzenesulfonimidamide], 10 to 100 nM.
In the case of `CNS(=N)(=O)c1ccc(Oc2ccnc3cc(OC)ccc23)cc1` (centres unmarked) [Compound 31, 4-((7-methoxyquinolin-4-yl)oxy)-N′-methylbenzenesulfonimidamide] it was 10 to 100 nM.
Turning to `COc1ccc2c(Oc3ccc(S(=N)(=O)N(C)C)cc3)ccnc2c1` (centres unmarked) [Compound 32, 4-((7-methoxyquinolin-4-yl)oxy)-N, N-dimethylbenzenesulfonimidamide], the half-inhibitory concentration (IC50) was greater than 100 nM.
The value for `COc1ccc2c(Oc3ccc(S(N)(=O)=NC4(c5ccccn5)CC4)cc3)ccnc2c1` (centres unmarked) [Compound 33, 4-((7-methoxyquinolin-4-yl)oxy)-N′-(1-(pyridin-2-yl)cyclopropyl)benzenesulfonimidamide] was less than 10 nM.
